Structures are written as SMILES.

In the assay the target is T1, human DGAT2 (Homo sapiens, UniProt Q96PD7).
T1 construct: made in house; host or cells: Sf-9 insect cells (baculovirus), membrane fraction
T1 sequence (Q96PD7 1-388): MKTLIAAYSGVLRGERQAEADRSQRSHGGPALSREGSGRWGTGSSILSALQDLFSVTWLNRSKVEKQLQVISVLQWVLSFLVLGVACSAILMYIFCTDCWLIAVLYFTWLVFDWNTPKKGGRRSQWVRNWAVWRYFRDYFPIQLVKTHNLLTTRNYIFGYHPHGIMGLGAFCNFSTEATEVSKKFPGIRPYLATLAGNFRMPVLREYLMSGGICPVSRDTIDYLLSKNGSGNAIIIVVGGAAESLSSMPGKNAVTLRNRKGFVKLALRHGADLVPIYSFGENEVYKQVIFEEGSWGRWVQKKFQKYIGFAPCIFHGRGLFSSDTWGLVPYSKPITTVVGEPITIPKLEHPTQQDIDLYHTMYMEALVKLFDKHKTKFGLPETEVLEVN
The assay can be described thus: DGAT2 Enzymatic Activity Assay. In kind it is biochemical. The settings on record: membrane prep of Sf-9 insect cells expressing hDGAT2; 13C18-triolein product by LC/MS/MS; 25 μM diolein, 5 μM 13C oleoyl-CoA. As for the experimental part:
Sf-9 insect cells were maintained in Grace's insect cell culture medium with 10% heated-inactivated fetal bovine serum, 1% Pluronic F-68 and 0.14 μg/ml Kanamycine sulfate at 27° C. in a shaker incubator. After infection with untagged baculovirus expressing human DGAT2 (hDGAT2) at multiplicity of infection (MOI) 3 for 48 hours, cells were harvested. Cell pellets were suspended in buffer containing 10 mM Tris-HCl pH 7.5, 1 mM EDTA, 250 mM sucrose and Complete Protease Inhibitor Cocktail (Sigma Aldrich), and sonicated on ice. Cell debris were removed by centrifugation at 2000×g for 15 minutes. Membrane fractions were isolated by ultracentrifugation (100,000×g), resuspended in the same buffer, and frozen (−80° C.) for later use. The protein concentration was determined with the Pierce™ BCA Protein Assay Kit (Thermo Fisher Scientific).
LC/MS/MS analyses were performed using Thermal Fisher's LX4-TSQ Vantage system. This system consists of an Agilent binary high-performance liquid chromatography (HPLC) pump and a TSQ Vantage triple quadrupole MS/MS instrument. For each sample, 2 μL samples from the top organic layer of in-plate liquid-liquid extraction were injected onto a Thermo Betabasic C4 column (2.1 mm×20 mm, 5 μm particle size). The samples were then eluted using the following conditions; mobile phase: Isopropanol:acetonitrile/10 mM ammonium formate=50/35/15 (v/v/v), flow rate: 0.8 mL/min, temperature: 25° C. Data was acquired in positive mode using a heated electrospray ionization (HESI) interface. […] The peak area was integrated by Xcalibur Quan software. The ratio between the ^13C18triolein generated in the reaction and spiked in internal standard ^13C21-triolein was used to generate percentage inhibition and IC50 values. Compound percentage inhibition was calculated by the following formula: Inhibition %=1−[(compound response−low control)/(high control−low control)]×100%.
DGAT2 activity was determined by measuring the amount of enzymatic product ^13C18-triolein (^13C-1,2,3-Tri(cis-9-octadecenoyl)glycerol) using the membrane prep mentioned above. The assay was carried out in ABgene 384-well assay plates in a final volume of 25 μL at rt.
Consider `C[C@]1(NC(=O)c2nn3ccc(Oc4ncccc4OCC(F)(F)F)cc3c2Cl)CCS(=O)(=O)C1` [Example 27, (S)-3-Chloro-N-(3-methyl-1,1-dioxidotetrahydrothiophen-3-yl)-5-((3-(2,2,2-trifluoroethoxy)pyridin-2-yl)oxy)pyrazolo[1,5-a]pyridine-2-carboxamide], for which the IC50 was determined as 400 nM. As to `CC1(NC(=O)c2nn3ccc(Oc4ncc(F)cc4OCC(F)(F)F)cc3c2F)CS(=O)(=O)C1` [Example 28, 3-Fluoro-5-((5-fluoro-3-(2,2,2-trifluoroethoxy)pyridin-2-yl)oxy)-N-(3-methyl-1,1-dioxidothietan-3-yl)pyrazolo[1,5-a]pyridine-2-carboxamide], the half-maximal inhibitory concentration (IC50) was found to be 129 nM.

`C[C@@]1(NC(=O)c2nn3ccc(Oc4ncc(F)cc4OCC(F)(F)F)cc3c2F)CCS(=O)(=O)C1` [Example 29, (R)-3-Fluoro-5-((5-fluoro-3-(2,2,2-trifluoroethoxy)pyridin-2-yl)oxy)-N-(3-methyl-1,1-dioxidotetrahydrothiophen-3-yl)pyrazolo[1,5-a]pyridine-2-carboxamide]: it took 277 nM to reach half-maximal inhibition (IC50). `CC1(NC(=O)c2nn3ccc(Oc4nccnc4OCC(F)F)cc3c2Cl)CS(=O)(=O)C1` [Example 30, 3-Chloro-5-((3-(2,2-difluoroethoxy)pyrazin-2-yl)oxy)-N-(3-methyl-1,1-dioxidothietan-3-yl)pyrazolo[1,5-a]pyridine-2-carboxamide]: the IC50 is 78 nM. Take `CC1(NC(=O)c2nn3ccc(Oc4nccnc4OCC(F)F)cc3c2F)CS(=O)(=O)C1` [Example 31, 5-((3-(2,2-Difluoroethoxy)pyrazin-2-yl)oxy)-3-fluoro-N-(3-methyl-1,1-dioxidothietan-3-yl)pyrazolo[1,5-a]pyridine-2-carboxamide]: half-maximal inhibition (IC50) was put at 194 nM.

As for `CC1(NC(=O)c2nn3ccc(Oc4nccnc4OCC(F)F)cc3c2F)CCS(=O)(=O)CC1` [Example 32, 5-((3-(2,2-Difluoroethoxy)pyrazin-2-yl)oxy)-3-fluoro-N-(4-methyl-1,1-dioxidotetrahydro-2H-thiopyran-4-yl)pyrazolo[1,5-a]pyridine-2-carboxamide], the IC50 was determined as 10 nM. In the case of `CC1(NC(=O)c2nn3ccc(Oc4ncc(F)cc4OCC(F)(F)F)c(Cl)c3c2Cl)CCS(=O)(=O)CC1` [Example 33, 3,4-Dichloro-5-((5-fluoro-3-(2,2,2-trifluoroethoxy)pyridin-2-yl)oxy)-N-(4-methyl-1,1-dioxidotetrahydro-2H-thiopyran-4-yl)pyrazolo[1,5-a]pyridine-2-carboxamide] it was 8.8 nM; in that of `CC1(NC(=O)c2nn3ccc(Oc4ncc(F)cc4OCC(F)(F)F)cc3c2Cl)CCS(=O)(=O)CC1` [Example 34, 3-Chloro-5-((5-fluoro-3-(2,2,2-trifluoroethoxy)pyridin-2-yl)oxy)-N-(4-methyl-1,1-dioxidotetrahydro-2H-thiopyran-4-yl)pyrazolo[1,5-a]pyridine-2-carboxamide], 7.3 nM. `CC1(NC(=O)c2nn3ccc(Oc4nccnc4OCC(F)(F)F)cc3c2Cl)CCS(=O)(=O)CC1` [Example 35, 3-Chloro-N-(4-methyl-1,1-dioxidotetrahydro-2H-thiopyran-4-yl)-5-((3-(2,2,2-trifluoroethoxy)pyrazin-2-yl)oxy)pyrazolo[1,5-a]pyridine-2-carboxamide] showed an IC50 of 18 nM. In the case of `CC1(NC(=O)c2nn3ccc(Oc4ncc(F)cc4OCC(F)(F)F)cc3c2F)CCS(=O)(=O)CC1` [Example 36, 3-Fluoro-5-((5-fluoro-3-(2,2,2-trifluoroethoxy)pyridin-2-yl)oxy)-N-(4-methyl-1,1-dioxidotetrahydro-2H-thiopyran-4-yl)pyrazolo[1,5-a]pyridine-2-carboxamide] it was 7.3 nM. Turning to `CC1(NC(=O)c2nn3ccc(Oc4ncc(Cl)cc4OCC(F)(F)F)cc3c2F)CS(=O)(=O)C1` [Example 37, 5-((5-Chloro-3-(2,2,2-trifluoroethoxy)pyridin-2-yl)oxy)-3-fluoro-N-(3-methyl-1,1-dioxidothietan-3-yl)pyrazolo[1,5-a]pyridine-2-carboxamide], half-maximal inhibition (IC50) required 7.7 nM.

In the case of `CC1(NC(=O)c2nn3ccc(Oc4ncc(C#N)cc4OCC(F)(F)F)cc3c2Cl)CCS(=O)(=O)CC1` [Example 41, 3-Chloro-5-((5-cyano-3-(2,2,2-trifluoroethoxy)pyridin-2-yl)oxy)-N-(4-methyl-1,1-dioxidotetrahydro-2H-thiopyran-4-yl)pyrazolo[1,5-a]pyridine-2-carboxamide], the IC50 came to 5 nM.

As for `CC1(NC(=O)c2cc3cc(Oc4ncc(C#N)cc4OCC(F)(F)F)ccn3n2)CCS(=O)(=O)CC1` [Example 42, 5-((5-Cyano-3-(2,2,2-trifluoroethoxy)pyridin-2-yl)oxy)-N-(4-methyl-1,1-dioxidotetrahydro-2H-thiopyran-4-yl)pyrazolo[1,5-a]pyridine-2-carboxamide], the IC50 amounted to 20 nM. As to `CCc1c(C(=O)NC2(C)CCS(=O)(=O)CC2)nn2ccc(Oc3ncccc3OCC(F)(F)F)cc12` [Example 46, 3-Ethyl-N-(4-methyl-1,1-dioxidotetrahydro-2H-thiopyran-4-yl)-5-((3-(2,2,2-trifluoroethoxy)pyridin-2-yl)oxy)pyrazolo[1,5-a]pyridine-2-carboxamide], the IC50 was determined as 17 nM.

The compound `CCc1c(C(=O)NC2(C)CS(=O)(=O)C2)nn2ccc(Oc3ncccc3OCC(F)(F)F)cc12` [Example 47, 3-Ethyl-N-(3-methyl-1,1-dioxidothietan-3-yl)-5-((3-(2,2,2-trifluoroethoxy)pyridin-2-yl)oxy)pyrazolo[1,5-a]pyridine-2-carboxamide] displayed an IC50 of 257 nM. Then `CC(C)c1c(C(=O)NC2(C)CCS(=O)(=O)CC2)nn2ccc(Oc3ncccc3OCC(F)(F)F)cc12` [Example 48, 3-Isopropyl-N-(4-methyl-1,1-dioxidotetrahydro-2H-thiopyran-4-yl)-5-((3-(2,2,2-trifluoroethoxy)pyridin-2-yl)oxy)pyrazolo[1,5-a]pyridine-2-carboxamide], with 46 nM; and `CC1(NC(=O)c2nn3ccc(Oc4ncccc4OCC(F)(F)F)cc3c2C(F)F)CCS(=O)(=O)CC1` [Example 49, 3-(Difluoromethyl)-N-(4-methyl-1,1-dioxidotetrahydro-2H-thiopyran-4-yl)-5-((3-(2,2,2-trifluoroethoxy)pyridin-2-yl)oxy)pyrazolo[1,5-a]pyridine-2-carboxamide], with 973 nM.

The compound `CC1(NC(=O)c2nn3ccc(Oc4ncccc4OCC(F)(F)F)cc3c2CO)CCS(=O)(=O)CC1` [Example 50, 3-(Hydroxymethyl)-N-(4-methyl-1,1-dioxidotetrahydro-2H-thiopyran-4-yl)-5-((3-(2,2,2-trifluoroethoxy)pyridin-2-yl)oxy)pyrazolo[1,5-a]pyridine-2-carboxamide] came in with an IC50 of 10 nM. Take `CC1(NC(=O)c2nn3ccc(Oc4ncccc4OCC(F)(F)F)cc3c2C(F)(F)F)CCS(=O)(=O)CC1` [Example 51, N-(4-Methyl-1,1-dioxidotetrahydro-2H-thiopyran-4-yl)-5-((3-(2,2,2-trifluoroethoxy)pyridin-2-yl)oxy)-3-(trifluoromethyl)pyrazolo[1,5-a]pyridine-2-carboxamide]: the IC50 amounted to 828 nM.

In turn, `CC1(NC(=O)c2nn3ccc(Oc4ncc(F)cc4OCC(F)(F)F)cc3c2C2CC2)CCS(=O)(=O)CC1` [Example 54, 3-cyclopropyl-5-((5-fluoro-3-(2,2,2-trifluoroethoxy)pyridin-2-yl)oxy)-N-(4-methyl-1,1-dioxidotetrahydro-2H-thiopyran-4-yl)pyrazolo[1,5-a]pyridine-2-carboxamide] returned an IC50 of 48 nM.

As for `CC1(NC(=O)c2nn3ccc(Oc4ncc(F)cc4OCC(F)(F)F)cc3c2N)CCS(=O)(=O)CC1` [Example 55, 3-Amino-5-((5-fluoro-3-(2,2,2-trifluoroethoxy)pyridin-2-yl)oxy)-N-(4-methyl-1,1-dioxidotetrahydro-2H-thiopyran-4-yl)pyrazolo[1,5-a]pyridine-2-carboxamide], the midpoint of inhibition, the IC50, lay at 16 nM.

The values are drawn from patent US20260193249A1, “PREPARATION OF PYRAZOLOPYRIDINE AND TRIAZOLOPYRIDINE DERIVATIVES AS NOVEL DIACYLGLYCERIDE O-ACYLTRANSFERASE 2 INHIBITORS” (Merck Sharp & Dohme LLC, priority 2022, published 2026).
